Assays:
[1] = target: Human neutrophil elastase (Homo sapiens (Human), UniProt P08246); experiment: Human Neutrophil Elastase Assay; assay type: biochemical; settings: substrate MeOSuc-Ala-Ala-Pro-Val-AMC 250 μM, pH 7.5
[2] = Aqueous solubility (Shaked Flask Method); assay type: physicochemical; settings: aqueous buffer, thermodynamic from solid, pH 6.8
Method: Assay for Determination of Aqueous Solubility (“Shaked Flask Method”)
Saturated solutions are prepared in well plates by adding an appropriate volume of selected aqueous media (typically in the range of 0.25-1.5 ml) into each well which contains a known quantity of solid drug substance (typically in the range 0.5-5.0 mg). The wells are shaken or stirred for a predefined time period (typically in a range of 2-24 h) and then filtered using appropriate filter membranes (typically PTFE-filters with 0.45 μm pore size). Filter absorption is avoided by discarding the first few drops of filtrate. The amount of dissolved drug substance is determined by UV spectroscopy or by HPLC with UV-detection. In addition, the pH of the aqueous saturated solution is measured using a glass-electrode pH meter.

human hepatocytes = experiment: Metabolic stability with human hepatocytes; assay type: in vitro ADME; settings: 1 μM test compound, well stirred model
Method: Assay for the Determination of Metabolic Stability with Human Hepatocytes
The metabolic degradation of the test compound is assayed in a human hepatocyte suspension. Human hepatocytes (typically cryopreserved) are incubated in an appropriate buffer system (e.g. Dulbecco's modified eagle medium plus 3.5 μg glucagon/500 mL, 2.5 mg insulin/500 mL and 3.75 mg/500 mL hydrocortison) containing 5% species serum. Following a (typically) […] preincubation in an incubator (37° C., 10% CO2), 5 μl of test compound solution (80 μM; from […] stock solution in DMSO diluted 1:25 with medium) are added into 395 μl hepatocyte suspension (cell density in the range 0.25-5*10^6 cells/mL, typically 1*10^6 cells/mL; final concentration of test compound 1 μM, final DMSO concentration 0.05%). The cells are incubated for six hours (incubator, orbital shaker) and samples (25 μl) are taken at 0, 0.5, 1, 2, 4 and 6 hours. Samples are transferred into acetonitrile and pelleted by centrifugation (5 min) The supernatant is transferred to a new 96-deepwell plate, evaporated under nitrogen and resuspended. The decline of parent compound is analyzed by LC-MS/MS.
The intrinsic clearance CL_[…] is calculated as follows: CL_[…]=Dose/AUC=(C0/CD)/(AUD+clast/k)*1,000/60
(C0: initial concentration in the incubation [μM], CD: cell density of vital cells [10^6 cells/mL], AUD: area under the data [μM*h], clast: concentration of last data point [μM], k: slope of the regression line for parent decline [h^−1])
The calculated in vitro hepatic intrinsic clearance Qh can be scaled up to the intrinsic in vivo hepatic clearance and used to predict hepatic in vivo blood clearance (CL) by the use of a liver model (well stirred model): CL_[…]_INVIVO [ml/min/kg]=(CL_[…] [μL/min/10^6 cells]*hepatocellularity [10^6 cells/g liver]*liver factor [g/kg bodyweight])/1,000 CL [ml/min/kg]=CL_[…]_INVIVO [ml/min/kg]*hepatic blood flow [ml/min/kg]/(CL_[…]_INVIVO [ml/min/kg]+hepatic blood flow [ml/min/kg]) Qh [%]=CL [ml/min/kg]/hepatic blood flow [ml/min/kg])
(Hepatocellularity, human: 120*10^6 cells/g liver; liver factor, human: 25.7 g/kg bodyweight; blood flow, human: 21 ml/(min*kg))
The calculated in-vitro hepatic intrinsic clearance values of selected compounds in the metabolic stability assay with human hepatocytes described above are listed in Table 15.

Chain of Human neutrophil elastase (P08246 30-247): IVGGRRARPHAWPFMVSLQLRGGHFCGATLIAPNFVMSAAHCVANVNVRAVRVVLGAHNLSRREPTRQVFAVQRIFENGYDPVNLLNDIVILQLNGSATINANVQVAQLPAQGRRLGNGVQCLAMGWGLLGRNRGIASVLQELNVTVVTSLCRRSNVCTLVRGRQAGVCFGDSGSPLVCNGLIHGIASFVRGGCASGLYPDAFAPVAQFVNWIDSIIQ

IC50 [1] [nM] | solubility [2] [µg/mL] | Qh (human hepatocytes) [%] | Compound
2.4 | > 10 | 12 | CN1C(=O)N(c2cccc(C(F)(F)F)c2)C2=C(C(=O)CC2)[C@H]1c1ccc(C#N)cc1C(N)=O [Example 2, 5-Cyano-2-[(R)-3-methyl-2,5-dioxo-1-(3-trifluoromethyl-phenyl)-2,3,4,5,6,7-hexahydro-1H-cyclopentapyrimidin-4-yl]-benzamide]
< 1 | > 10 | 13 | CN1C(=O)N(c2cccc(C(F)(F)F)c2)C2=C(C(=O)CC2)[C@H]1c1ccc(C#N)cc1-c1ccc(=O)n(C)c1 [Example 23, 4-[(R)-3-Methyl-2,5-dioxo-1-(3-trifluoromethyl-phenyl)-2,3,4,5,6,7-hexahydro-1H-cyclopentapyrimidin-4-yl]-3-(1-methyl-6-oxo-1,6-dihydro-pyridin-3-yl)-benzonitrile]
1.9 | > 10 | 10 | CN1C(=O)N(c2cccc(C(F)(F)F)c2)C2=C(C(=O)CC2)[C@H]1c1ccc(C#N)cc1CNC(C)(C)C [Example 24, 3-(tert-Butylamino-methyl)-4-[(R)-3-methyl-2,5-dioxo-1-(3-trifluoromethyl-phenyl)-2,3,4,5,6,7-hexahydro-1H-cyclopentapyrimidin-4-yl]-benzonitrile]
